In patent publication US20260014119A1, “EMOPAMIL-BINDING PROTEIN INHIBITORS AND USES THEREOF” (BIOGEN MA INC., priority 2022, published 2026) one finds IC50 data, which are given here for 5 compounds.

The target in this test is T1, EBP (Homo sapiens, UniProt Q15125).
T1 construct: HEK293T cells were utilized as the source of EBP enzyme; endogenous in cells; host or cells: HEK293T
T1 sequence (Q15125 whole entry): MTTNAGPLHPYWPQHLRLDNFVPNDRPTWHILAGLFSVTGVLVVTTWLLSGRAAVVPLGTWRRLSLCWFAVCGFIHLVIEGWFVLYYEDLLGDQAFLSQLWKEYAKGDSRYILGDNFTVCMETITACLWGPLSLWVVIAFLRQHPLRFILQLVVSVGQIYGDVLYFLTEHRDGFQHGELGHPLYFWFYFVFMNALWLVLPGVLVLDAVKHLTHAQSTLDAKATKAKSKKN
Put plainly: EBP Functional Assay (EBP immunoaffinity LC-MS assay). It counts as biochemical. To be noted: EBP enzyme from HEK293T cells; 30 min with inhibitor, then zymosterol-d5 at 37° C. for 4 h; percent conversion by LC-APCI MRM MS. As for the experimental part: The EBP immunoaffinity (IA) LC-MS assay measures the potency of small molecule inhibitors of EBP by quantifying their concentration-dependent changes in the enzyme's substrate and product using liquid chromatography atmospheric pressure chemical ionization multiple reaction monitoring mass spectrometry (LC-APCI MRM MS). HEK293T cells were utilized as the source of EBP enzyme. The enzyme was incubated with the small molecule inhibitors at variable concentrations for 30 min. Deuterated form of EBP substrate, zymosterol-d5 (Avanti Polar Lipids, Cat #700068P-1 mg), was then added and the plate was incubated at 37° C. for 4 h. Finally, the sterol isomers were extracted and injected to LC-APCI MRM MS. MRM transition used for the quantification for both zymosterol and […] (substrate and product of EBP enzymatic reaction, respectively) is 372.3-203.2, CE 30 and DP 80 in positive ion mode. Percent conversion of the zymosterol-d5 to dehydrolathosterol-d5 was used to derive IC50 curves. Tasin-1 (1′-[(4-Methoxyphenyl)sulfonyl]-4-methyl-1,4′-bipiperidine, CAS 792927-06-1) was used as the reference small molecule inhibitor.
Percent conversion versus the compound concentration data were fit to the following 4-parameter logistic model to generate IC50 curves: […]
Turning to `Cc1nc(C(F)(F)F)nc(C)c1S(=O)(=O)N1C[C@H]2CN(C3CC4(COC4)C3)C[C@@H]2C1` [Example 61, (3aR,6aR)-2-((4,6-dimethyl-2-(trifluoromethyl)pyrimidin-5-yl)sulfonyl)-5-(2-oxaspiro[3.3]heptan-6-yl)octahydropyrrolo[3,4-c]pyrrole], the IC50 is under 100 nM. `Cc1cc(S(=O)(=O)N2C[C@H]3CN(C4CCOCC4)C[C@H]3C2)n(C)n1` [Example 49, Rac-(3aR,6aS)-2-((1,3-dimethyl-1H-pyrazol-5-yl)sulfonyl)-5-(tetrahydro-2H-pyran-4-yl)octahydropyrrolo[3,4-c]pyrrole] came in with an IC50 of over 500 nM. `Cc1nc(C(F)(F)F)ccc1S(=O)(=O)N1C[C@H]2C[C@H](N(C)CC3CCOCC3)C[C@H]2C1` [Example 23, (3aR,5s,6aS)-N-Methyl-2-((2-methyl-6-(trifluoromethyl)pyridin-3-yl)sulfonyl)-N-((tetrahydro-2H-pyran-4-yl)methyl)octahydrocyclopenta[c]pyrrol-5-amine] showed an IC50 of under 100 nM. Compound `O=S(=O)(c1ccc(OC(F)F)cc1)N1C[C@H]2C[C@H](NC3CCOC3)C[C@H]2C1` (stereo partly drawn) [Example 15, (3aR,5s,6aS)-2-((4-(Difluoromethoxy)phenyl)sulfonyl)-N-(tetrahydrofuran-3-yl)octahydrocyclopenta[c]pyrrol-5-amine] registered an IC50 of 100 to 500 nM. In turn, `Cc1ccc(S(=O)(=O)N2C[C@H]3C[C@H](NCC4CCOCC4)C[C@H]3C2)c(C)c1` [Example 7, (3aR,5s,6aS)-2-((2,4-Dimethylphenyl)sulfonyl)-N-((tetrahydro-2H-pyran-4-yl)methyl)octahydrocyclopenta[c]pyrrol-5-amine] displayed an IC50 of under 100 nM.
